Source: patent US12072333B2, “Method and apparatus for selective removal of cells from a cell suspension by mechanical lysis” (UNIVERSITY OF IOWA RESEARCH FOUNDATION, priority 2016, dated 2024)

Test system: prostate cancer cells
Assay: Cell killing by ionomycin measured by uptake of trypan blue dye
Format: cell-based
Details: prostate cancer cells treated with ionomycin; after 30 minute; FIG. 1B

C[C@H](CCC(=O)O)C[C@H](C)C[C@H](C)C(=O)/C=C(\O)[C@H](C)C[C@H](C)C/C=C/[C@@H](C)[C@@H](O)[C@@H](C)[C@@H](O)C[C@@H]1CC[C@@](C)([C@H]2CC[C@@](C)([C@@H](C)O)O2)O1 [ionomycin]
cell death as measured by uptake of trypan blue dye: rapidly kills these cells
